Results as given in patent US10301294B2, “Compounds for the treatment of tuberculosis” (priority 2013, dated 2019).

Experiments:
[1] = system: carbon-starved M. tuberculosis H37Rv; assay: Non-replicating IC90 determination by luciferase (carbon-starved cells); format: cell-based; conditions: luciferase; for IC99 / IC90: Mycobacterium tuberculosis, H37RV; for IC99: 120 h, read-out: Against carbon starved non-replicating Mtb IC99 (uM, luciferase); for IC99 / Against carbon starved non-replicating Mtb IC99 (uM, luciferase): None = inhibition did not reach 99%; for IC90: IC90 given in brackets beside IC99, read-out: Against carbon starved non-replicating Mtb IC90 (in brackets, luciferase)
[2] = system: replicating M. tuberculosis H37Rv; assay: microbe, parasite or virus in culture; format: cell-based; conditions: None = inhibition did not reach 90%; for IC90: Mycobacterium tuberculosis, H37RV, read-out: Against Replicating Mtb IC90 (uM, GFP)

Structure (SMILES) | IC99 [1] [µM] | IC90 [2] [µM] | IC90 [1] [µM] | Against carbon starved non-replicating Mtb IC99 (uM, luciferase) [1] | Against Replicating Mtb IC90 (uM, GFP) [2]
CCCCCCCCCCCCSc1nnc(-c2ccccc2)o1 | 62 | 125 | – | – | –
Fc1ccc(-c2nnc(SCCN3CCC(F)(F)CC3)o2)cc1 | – | – | 1 | None | None
[N-]=[N+]=NCCOCCNC(=O)CCCOc1ccc(C[S+]([O-])c2nnc(-c3ccc(Cl)cc3)o2)nc1 (centres unmarked) [drawing 240] | 16 | 250 | – | – | –
Brc1ccc(-c2nnc(SCc3ccccn3)o2)cc1 [drawing 212] | 8 | 31 | – | – | –
O=C(CSc1nnc(-c2ccccc2)o1)c1ccc(Br)cc1 | – | > 500 | – | None | –
COC(=O)c1ccc(CSc2nnc(-c3ccc(Cl)cc3)o2)nc1 | 16 | – | – | – | None
COc1ccc(-c2nnc(SCc3ccccn3)o2)cc1 | 16 | 62 | – | – | –
CN1CCCCC1COc1nnc(-c2ccc(Cl)cc2)o1 (centres unmarked) | 500 | > 500 | – | – | –
[O-][S+](Cc1ccccn1)c1nnc(-c2ccc(F)cc2)o1 (centres unmarked) | – | 31 | – | – | –
Fc1cccc(-c2nnc(SCc3ccccn3)o2)c1 [drawing 216] | 16 | 31 | – | – | –
Cc1cccc(CSc2nnc(-c3ccc(Cl)cc3)o2)n1 | 31 | 62 | – | – | –
[N-]=[N+]=NCCCOc1ccc(CSc2nnc(-c3ccc(F)cc3)o2)nc1 | 16 | 31 | – | – | –
OCCn1cc(CSc2nnc(-c3ccc(Cl)cc3)o2)nn1 | 31 | 62 | – | – | –
[O-][S+](Cc1ccccn1)c1nnc(-c2ccc(Cl)cc2)o1 (centres unmarked) [drawing 195] | 4 | 31 | – | – | –
CS(=O)(=O)c1nnc(-c2ccc(Cl)cc2)o1 | 8 | 125 | – | – | –
OCC#CCSc1nnc(-c2ccc(Cl)cc2)o1 | 8 | 62 | – | – | –
c1ccc(-c2nnc(SCC3CC3)o2)cc1 | 31 | 125 | – | – | –
COc1cccc(-c2nnc(SCc3ccccn3)o2)c1 [drawing 227] | 16 | 62 | – | – | –
COc1ccccc1-c1nnc(SCc2ccccn2)o1 | 125 | – | – | – | None
COCCS(=O)(=O)c1nnc(-c2ccc(Cl)cc2)o1 | 250 | > 500 | – | – | –
COC(=O)c1ccc(C[S+]([O-])c2nnc(-c3ccc(Cl)cc3)o2)nc1 (centres unmarked) | 4 | 125 | – | – | –

Structure (SMILES) | IC99 [1] [µM] | IC90 [2] [µM] | IC90 [1] [µM] | Against carbon starved non-replicating Mtb IC99 (uM, luciferase) [1] | Against Replicating Mtb IC90 (uM, GFP) [2]
c1ccc(-c2nnc(OCc3ccccn3)o2)cc1 | – | > 500 | – | None | –
CCSc1nnc(-c2ccccc2)o1 | 250 | 200 | – | – | –
CS(=O)(=O)c1nnc(-c2ccccc2)o1 | 62 | 250 | – | – | –
Clc1ccc(-c2nnc(SCc3cn(Cc4ccccc4)nn3)o2)cc1 [drawing 224] | 16 | – | – | – | None
COc1cc(-c2nnc(SCc3ccccn3)o2)ccc1F | 16 | – | – | – | None
COC(=O)CCCOc1ccc(CSc2nnc(-c3ccc(Cl)cc3)o2)nc1 [drawing 233] | 16 | 31 | – | – | –
Clc1ccc(-c2nnc(OCc3ccccn3)o2)cc1 | 250 | 250 | – | – | –
[N-]=[N+]=NCCOCCNC(=O)c1ccc(C[S+]([O-])c2nnc(-c3ccc(Cl)cc3)o2)nc1 (centres unmarked) | 62 | 250 | – | – | –
C#CCOc1ccc(-c2nnc([S+]([O-])Cc3ccccn3)o2)cc1 (centres unmarked) | 31 | 31 | – | – | –
[N-]=[N+]=NOCCNC(=O)CCCOc1ccc(-c2nnc([S+]([O-])Cc3ccccn3)o2)cc1 (centres unmarked) | 62 | 125 | – | – | –
COCCNc1nnc(-c2ccc(Cl)cc2)o1 | – | > 500 | – | None | –
COc1ccc(CSc2nnc(-c3ccc(F)cc3)o2)nc1 | – | 16 to 31 | – | – | –
[O-][S+](Cc1cn(Cc2ccccc2)nn1)c1nnc(-c2ccc(Cl)cc2)o1 (centres unmarked) [drawing 223] | 8 | 62 | – | – | –
[N-]=[N+]=NCCOCCNC(=O)CCCn1cc(C[S+]([O-])c2nnc(-c3ccc(F)cc3)o2)nn1 (centres unmarked) | 500 | 500 | 125 | – | –
COC(=O)CCCOc1ccc(-c2nnc(SCc3ccccn3)o2)cc1 | 250 | 500 | – | – | –
O=S(=O)(Cc1ccccc1)c1nnc(-c2ccccc2)o1 [drawing 214] | 16 | 125 | – | – | –
CCOC(=O)CSc1nnc(-c2ccccc2)o1 | 250 | 500 | – | – | –
[O-][n+]1ccccc1CSc1nnc(-c2ccccc2)o1 [drawing 194] | 125 | 62 | – | – | –
COCCS(=O)(=O)c1nnc(-c2ccc(C)cc2)o1 | 8 | 31 | – | – | –
COc1ccc(CSc2nnc(-c3ccc(Cl)cc3)o2)nc1 [drawing 228] | 8 | 31 | – | – | –
COCCSc1nnc(-c2ccncc2)o1 | 500 | > 500 | – | – | –

Structure (SMILES) | IC99 [1] [µM] | IC90 [2] [µM] | IC90 [1] [µM] | Against carbon starved non-replicating Mtb IC99 (uM, luciferase) [1] | Against Replicating Mtb IC90 (uM, GFP) [2]
Fc1ccc(CSc2nnc(-c3ccc(Cl)cc3)o2)cc1 | – | > 500 | – | None | –
C#CCSc1nnc(-c2ccc(Cl)cc2)o1 | 16 | 31 | – | – | –
c1ccc(-c2nnc(SCc3ccncc3)o2)cc1 [drawing 179] | 500 | 250 | – | – | –
COC(=O)CCCOc1ccc(CSc2nnc(-c3ccc(F)cc3)o2)nc1 | 31 | 125 | – | – | –
Fc1ccc(CSc2nnc(-c3ccncc3)o2)cc1 | – | > 500 | – | None | –
CSc1nnc(-c2ccccc2)o1 | – | > 250 | – | None | –
c1cncc(-c2nnc(SCCC3OCCCO3)o2)c1 | – | > 500 | – | None | –
Clc1ccc(-c2nnc(SCCC3OCCCO3)o2)cc1 | 8 | 62 | – | – | –
Oc1ccc(-c2nnc(SCc3ccccn3)o2)cc1 | 62 | 125 | – | – | –
Clc1ccc(-c2nnc(SCc3ccccn3)o2)cc1 | 16 | 62 | – | – | –
COCCSc1nnc(-c2ccccc2)o1 [drawing 175] | 16 | 125 | – | – | –
[N-]=[N+]=NCCCOc1ccc(C[S+]([O-])c2nnc(-c3ccc(F)cc3)o2)nc1 (centres unmarked) | 4 | 31 | – | – | –
c1ccc(-c2nnc(SC3CCCCC3)o2)cc1 [drawing 181] | 62 | > 500 | – | – | –
C#CCCCOc1cccc(-c2nnc(SCc3ccccn3)o2)c1 | 16 | – | – | – | None
Fc1ccc(CCSc2nnc(-c3ccccc3)o2)cc1 | 250 | 250 | – | – | –
C#CCCCOc1cc(-c2nnc(SCc3ccccn3)o2)ccc1OC | 16 | – | – | – | None
CC(C)(C)c1ccc(CSc2nnc(-c3ccc(Cl)cc3)o2)cc1 | 62 | 250 | – | – | –
[N-]=[N+]=NCCOCCNC(=O)CCCOc1ccc(C[S+]([O-])c2nnc(-c3ccc(F)cc3)o2)nc1 (centres unmarked) | 31 | 125 | – | – | –
COCCSc1nnc(-c2ccc(Cl)cc2)o1 | 16 | 50 | – | – | –
Cc1ccc(-c2nnc(SCc3ccccn3)o2)cc1 | 16 | 31 | – | – | –
Clc1ccc(-c2nnc(NCc3ccccn3)o2)cc1 | 125 | 500 | – | – | –

Structure (SMILES) | IC99 [1] [µM] | IC90 [2] [µM] | IC90 [1] [µM] | Against carbon starved non-replicating Mtb IC99 (uM, luciferase) [1] | Against Replicating Mtb IC90 (uM, GFP) [2]
c1ccc(-c2nnc(SCc3ccccn3)o2)cc1 [drawing 177] | 31 | 100 | – | – | –
Fc1ccc(CSc2nnc(-c3ccccc3)o2)cc1 [drawing 172] | – | 125 | – | None | –
COc1ccc(C[S+]([O-])c2nnc(-c3ccc(F)cc3)o2)nc1 (centres unmarked) | – | 31 | – | – | –
Cc1ccc(-c2nnc([S+]([O-])Cc3cccc[n+]3[O-])o2)cc1 (centres unmarked) | 62 | 125 | – | – | –
c1ccc(-c2nnc(SCCC3OCCCO3)o2)cc1 [drawing 168] | 62 | 125 | – | – | –
COCCOc1nnc(-c2ccc(Cl)cc2)o1 | 250 | > 500 | – | – | –
Oc1cccc(-c2nnc(SCc3ccccn3)o2)c1 | 62 | 125 | – | – | –
Fc1ccc(-c2nnc(SCCN3CCN(c4ccccc4)CC3)o2)cc1 | – | 250 | 4 | None | –
[N-]=[N+]=NCCOCCNC(=O)CCCOc1ccc(CSc2nnc(-c3ccc(Cl)cc3)o2)nc1 [drawing 237] | 62 | 62 | – | – | –
c1ccc(CSc2nnc(-c3cccnc3)o2)nc1 | 250 | > 500 | – | – | –
Fc1ccc(CSc2nnc(-c3cccnc3)o2)cc1 | 62 | > 500 | – | – | –
Fc1ccc(-c2nnc(SCCN3CCCC(F)(F)C3)o2)cc1 | 250 | 250 | 1 | – | –
C#CCCCOc1cc(-c2nnc(SCc3ccccn3)o2)ccc1F | 64 | – | 4 | – | None
COCC[S+]([O-])c1nnc(-c2ccc(Cl)cc2)o1 (centres unmarked) [drawing 196] | 31 | 31 | – | – | –
c1ccc(-c2nnc(SCc3cccnc3)o2)cc1 [drawing 178] | 250 | 125 | – | – | –
c1ccc(CSc2nnc(-c3ccncc3)o2)nc1 | 500 | > 500 | – | – | –
COCCSc1nnc(-c2cccnc2)o1 | – | > 500 | – | None | –
[N-]=[N+]=NCCOCCNC(=O)CCCOc1ccc(CSc2nnc(-c3ccc(F)cc3)o2)nc1 | – | 125 | – | None | –
C#CCCCOc1ccc(CSc2nnc(-c3ccc(F)cc3)o2)nc1 | 16 | 31 | – | – | –
c1cc(-c2nnc(SCCC3OCCCO3)o2)ccn1 | – | > 500 | – | None | –
c1ccc(-c2nnc(NCc3ccccn3)o2)cc1 | – | > 500 | – | None | –
